Patent publication US20240317777A1, “NOVEL MACROCYCLIC AMINOPYRAZOLE COMPOUNDS AS CDK2 INHIBITORS” (Accutar Biotechnology Inc., priority 2023, published 2024)
Like-named read-outs stand apart in the source and are kept apart here.

Assays:
[1] = other bond
[2] = molecular target: CDK1-CYCLIN B (Homo sapiens, UniProt P06493); test: CDK protein kinase inhibition by ADP-Glo assay, CDK1-CYCLIN B; format: biochemical; conditions: ADP-Glo, 1000 μM ATP, read-out: CDK1-CYCLINB, IC50
How it was run: (§1)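 Compounds were incubated at 22° C with the CDK/cyclin complex, peptide substrate, 1000 μM ATP and 5 mM MgCl2. The reaction was then quenched and ADP formation quantified by luminescence using ADP-Glo reagents.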

[3] = tested on: Phospho-Rb (Ser807/811) in OVCAR3 cells; test: Phospho-Rb expression inhibition in OVCAR3 cells quantified by In Cell Western; format: cell-based; conditions: Homo sapiens, OVCAR-3, 24 hours, read-out: OVCAR-3 pRb IC50
How it was run: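 In-cell western: after 24 h compound exposure at 37° C, fixed OVCAR3 cells co-stained for pRb Ser807/811 (800 nm channel) and total Rb (680 nm channel), imaged by LI-COR Odyssey.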

[4] = molecular target: CDK9-CYCLIN T1 (Homo sapiens, UniProt P50750); test: CDK protein kinase inhibition by ADP-Glo assay, CDK9-CYCLIN T1; format: biochemical; conditions: ADP-Glo, 1000 μM ATP, read-out: CDK9-CYCLINT1, IC50
How it was run: as §1

[5] = molecular target: CDK4-CYCLIN D1 (Homo sapiens, UniProt P11802); test: CDK protein kinase inhibition by ADP-Glo assay, CDK4-CYCLIN D1; format: biochemical; conditions: ADP-Glo, 1000 μM ATP, read-out: CDK4-CYCLIND1, IC50
How it was run: as §1

[6] = tested on: CCNE1-normal SKOV3 cells; test: Cell growth inhibition of CCNE1-normal SKOV3 cells (CellTiter-Glo); format: cell-based; conditions: Homo sapiens, SK-OV-3, 144 h, 6 days
How it was run: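 Growth was measured by CellTiter-Glo luminescence after 6 days' compound exposure at 37 °C. Cells were plated one day before dosing at 1000 per well in medium with 10% FBS, and compounds were diluted from DMSO stocks.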

[7] = tested on: CCNE1-amplified OVCAR3 cells; test: Cell growth inhibition of CCNE1-amplified OVCAR3 cells (CellTiter-Glo); format: cell-based; conditions: Homo sapiens, OVCAR-3, 144 h, 6 days
How it was run: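 Growth read-out was CellTiter-Glo luminescence, taken after 10 min at room temperature at the end of a 6-day compound exposure at 37 °C. Compounds were diluted from DMSO stocks across various concentrations.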

[8] = molecular target: CDK6-CYCLIN D3 (Homo sapiens, UniProt Q00534); test: CDK protein kinase inhibition by ADP-Glo assay, CDK6-CYCLIN D3; format: biochemical; conditions: ADP-Glo, 1000 μM ATP, read-out: CDK6-CYCLIND3, IC50
How it was run: as §1

[9] = molecular target: CDK2-CYCLIN E1 (Homo sapiens, UniProt P24941); test: CDK protein kinase inhibition by ADP-Glo assay, CDK2-CYCLIN E1; format: biochemical; conditions: ADP-Glo, 1000 μM ATP, read-out: CDK2-CYCLINE, IC50
How it was run: as §1

CDK9-CYCLIN T1, sequence (P50750 whole entry): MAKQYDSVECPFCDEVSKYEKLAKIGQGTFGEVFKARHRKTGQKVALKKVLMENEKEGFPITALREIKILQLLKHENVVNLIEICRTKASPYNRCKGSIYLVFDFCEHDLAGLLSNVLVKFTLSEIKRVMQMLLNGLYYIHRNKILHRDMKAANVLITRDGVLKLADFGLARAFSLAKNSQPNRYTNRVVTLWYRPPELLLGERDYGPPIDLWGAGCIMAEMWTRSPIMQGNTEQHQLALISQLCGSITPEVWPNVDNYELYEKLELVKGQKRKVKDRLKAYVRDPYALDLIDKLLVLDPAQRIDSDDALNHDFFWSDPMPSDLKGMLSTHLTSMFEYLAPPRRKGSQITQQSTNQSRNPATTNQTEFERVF
CDK9-CYCLIN T1, sequence (O60563 whole entry partner): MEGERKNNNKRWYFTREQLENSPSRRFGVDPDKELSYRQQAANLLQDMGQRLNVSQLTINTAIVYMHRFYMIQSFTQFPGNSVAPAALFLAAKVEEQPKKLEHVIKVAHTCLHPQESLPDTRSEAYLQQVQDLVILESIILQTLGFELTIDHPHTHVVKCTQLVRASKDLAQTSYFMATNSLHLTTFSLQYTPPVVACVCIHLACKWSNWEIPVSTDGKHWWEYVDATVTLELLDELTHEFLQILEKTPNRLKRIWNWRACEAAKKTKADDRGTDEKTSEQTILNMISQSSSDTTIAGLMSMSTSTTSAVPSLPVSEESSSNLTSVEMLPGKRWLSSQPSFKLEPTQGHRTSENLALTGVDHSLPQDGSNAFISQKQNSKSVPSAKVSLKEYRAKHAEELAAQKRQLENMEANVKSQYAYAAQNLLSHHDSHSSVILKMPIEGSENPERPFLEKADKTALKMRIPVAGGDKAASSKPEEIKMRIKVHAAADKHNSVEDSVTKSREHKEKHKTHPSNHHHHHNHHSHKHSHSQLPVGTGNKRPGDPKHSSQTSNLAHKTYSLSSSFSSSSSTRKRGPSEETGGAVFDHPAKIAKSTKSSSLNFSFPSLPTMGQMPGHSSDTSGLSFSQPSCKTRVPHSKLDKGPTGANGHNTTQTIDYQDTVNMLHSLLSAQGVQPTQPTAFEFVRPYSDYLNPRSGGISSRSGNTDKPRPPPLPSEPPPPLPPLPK
CDK4-CYCLIN D1, sequence (P11802 whole entry): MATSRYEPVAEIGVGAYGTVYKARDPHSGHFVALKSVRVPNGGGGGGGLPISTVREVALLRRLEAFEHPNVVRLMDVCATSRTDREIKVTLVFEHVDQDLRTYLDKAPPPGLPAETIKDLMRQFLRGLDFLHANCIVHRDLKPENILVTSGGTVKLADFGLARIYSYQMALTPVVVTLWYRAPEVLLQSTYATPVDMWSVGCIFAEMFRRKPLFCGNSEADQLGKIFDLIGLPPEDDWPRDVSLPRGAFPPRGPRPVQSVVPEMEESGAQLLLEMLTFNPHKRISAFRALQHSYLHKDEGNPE
CDK4-CYCLIN D1, sequence (P24385 whole entry partner): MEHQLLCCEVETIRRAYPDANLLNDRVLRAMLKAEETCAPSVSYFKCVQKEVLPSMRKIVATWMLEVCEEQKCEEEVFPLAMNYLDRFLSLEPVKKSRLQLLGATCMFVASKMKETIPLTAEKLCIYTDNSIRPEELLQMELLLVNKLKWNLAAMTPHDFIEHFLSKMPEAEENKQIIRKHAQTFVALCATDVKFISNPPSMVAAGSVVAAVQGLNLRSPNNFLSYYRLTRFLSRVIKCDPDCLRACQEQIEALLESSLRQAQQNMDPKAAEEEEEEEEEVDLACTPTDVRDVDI
CDK6-CYCLIN D3, sequence (Q00534 whole entry): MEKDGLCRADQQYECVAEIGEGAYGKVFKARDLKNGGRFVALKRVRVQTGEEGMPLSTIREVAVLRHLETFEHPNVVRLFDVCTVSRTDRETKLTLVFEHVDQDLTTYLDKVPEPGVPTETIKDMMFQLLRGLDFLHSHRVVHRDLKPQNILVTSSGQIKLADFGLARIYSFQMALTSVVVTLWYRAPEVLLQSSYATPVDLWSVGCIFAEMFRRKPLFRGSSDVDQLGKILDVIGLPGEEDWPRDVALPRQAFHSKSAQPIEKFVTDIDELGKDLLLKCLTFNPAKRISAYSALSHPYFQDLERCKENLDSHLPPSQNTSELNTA
CDK6-CYCLIN D3, sequence (P30281 whole entry partner): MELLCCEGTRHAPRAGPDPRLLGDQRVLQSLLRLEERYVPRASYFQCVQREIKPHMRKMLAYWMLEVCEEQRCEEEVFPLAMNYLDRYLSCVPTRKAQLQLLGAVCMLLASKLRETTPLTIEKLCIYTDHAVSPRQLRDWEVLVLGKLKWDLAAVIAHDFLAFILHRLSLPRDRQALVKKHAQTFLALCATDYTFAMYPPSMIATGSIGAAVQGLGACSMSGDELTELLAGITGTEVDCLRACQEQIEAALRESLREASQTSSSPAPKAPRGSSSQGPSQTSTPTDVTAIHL
CDK1-CYCLIN B, sequence (P06493 whole entry): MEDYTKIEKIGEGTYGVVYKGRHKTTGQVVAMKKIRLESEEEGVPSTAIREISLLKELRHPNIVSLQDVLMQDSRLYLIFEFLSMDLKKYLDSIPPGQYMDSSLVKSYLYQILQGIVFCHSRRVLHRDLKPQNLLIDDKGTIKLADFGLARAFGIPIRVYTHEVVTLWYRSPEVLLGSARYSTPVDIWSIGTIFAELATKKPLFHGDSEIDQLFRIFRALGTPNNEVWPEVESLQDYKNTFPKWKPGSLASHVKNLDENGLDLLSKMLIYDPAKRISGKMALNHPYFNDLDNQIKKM
CDK1-CYCLIN B, sequence (P14635 whole entry partner): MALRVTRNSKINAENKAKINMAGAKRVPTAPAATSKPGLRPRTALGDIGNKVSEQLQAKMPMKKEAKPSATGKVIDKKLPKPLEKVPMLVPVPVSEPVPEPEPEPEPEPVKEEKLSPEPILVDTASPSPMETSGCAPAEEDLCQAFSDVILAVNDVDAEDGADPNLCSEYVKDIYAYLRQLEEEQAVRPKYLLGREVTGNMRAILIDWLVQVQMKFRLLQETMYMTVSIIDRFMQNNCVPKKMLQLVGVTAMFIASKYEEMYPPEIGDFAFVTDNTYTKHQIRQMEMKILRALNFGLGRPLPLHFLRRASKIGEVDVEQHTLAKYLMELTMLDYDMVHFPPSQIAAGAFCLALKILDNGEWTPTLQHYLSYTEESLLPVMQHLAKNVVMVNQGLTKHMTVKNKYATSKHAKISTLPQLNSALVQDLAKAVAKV

CC(C)(C)n1nc2cc1Nc1cc(nc(C(F)F)c1)CCCCCNC(=O)O[C@@H]1CC[C@H]2C1
ring closure, yield of all isomers ([1]; from CC(C)(C)n1nc([C@H]2CC[C@@H](OC(=O)Oc3ccc([N+](=O)[O-])cc3)C2)cc1Nc1cc(CCCCCN)nc(C(F)F)c1, DIPEA, THF, 3.27 mM, 30.0 °C, 12.0 h): 44.1%

CC(C)(C)n1nc2cc1Nc1cc(nc(C(F)F)c1)OCCCCNC(=O)O[C@@H]1CC[C@H]2C1
ring closure, yield of all isomers ([1]; from CC(C)(C)n1nc([C@H]2CC[C@@H](OC(=O)Oc3ccc([N+](=O)[O-])cc3)C2)cc1Nc1cc(OCCCCN)nc(C(F)F)c1, DIEA, THF, 1.11 mM, 25.0 °C, 12.0 h): 65%

CC(C)(C)n1nc2cc1Nc1ccnc(c1)C(F)(F)C[C@H]1C[C@@H](C1)NC(=O)O[C@@H]1CC[C@H]2C1
ring closure, yield of all isomers ([1]; from CC(C)(C)n1nc([C@H]2CC[C@@H](OC(=O)Oc3ccc([N+](=O)[O-])cc3)C2)cc1Nc1ccnc(C(F)(F)C[C@H]2C[C@H](N)C2)c1, DIEA, THF, 3.33 mM, 25.0 °C, 12.0 h): 99.9%

CC(C)(C)n1nc2cc1Nc1ccnc(c1)CCCCCNC(=O)O[C@@H]1CC[C@H]2C1
ring closure, yield of all isomers ([1]; from CC(C)(C)n1nc([C@H]2CC[C@@H](OC(=O)Oc3ccc([N+](=O)[O-])cc3)C2)cc1Nc1ccnc(CCCCCN)c1, DIPEA, THF, 2.0 mM, 30.0 °C, 3.0 h): 85%

CC(C)(C)n1nc2cc1Nc1ccnc(c1)OC[C@H]1C[C@@H](C1)NC(=O)O[C@@H]1CC[C@H]2C1
ring closure, yield of all isomers ([1]; from CC(C)(C)n1nc([C@H]2CC[C@@H](OC(=O)Oc3ccc([N+](=O)[O-])cc3)C2)cc1Nc1ccnc(OC[C@H]2C[C@H](N)C2)c1, DIEA, THF, 1.21 mM, 70.0 °C, 12.0 h): 96.7%

CC(C)(C)n1nc2cc1Nc1ccnc(c1)OC[C@H]1C[C@@H](C1)NC(=O)O[C@H]1C[C@@H]2C[C@H]1F
ring closure, yield of all isomers ([1]; from CC(C)(C)n1nc([C@H]2C[C@@H](F)[C@@H](OC(=O)Oc3ccc([N+](=O)[O-])cc3)C2)cc1Nc1ccnc(OC[C@H]2C[C@H](N)C2)c1, DIEA, THF, 1.7 mM, 60.0 °C, 12.0 h): 37%

CC(C)(C)n1nc2cc1Nc1cncc(c1)OCCCCNC(=O)O[C@@H]1CC[C@H]2C1
ring closure, yield of all isomers ([1]; from CC(C)(C)n1nc([C@H]2CC[C@@H](OC(=O)Oc3ccc([N+](=O)[O-])cc3)C2)cc1Nc1cncc(OCCCCN)c1, DIPEA, THF, 2.01 mM, 25.0 °C, 12.0 h, 2 steps): 49.3%

CC(C)(C)n1nc2cc1Nc1cncc(n1)OC[C@H]1C[C@@H](C1)NC(=O)O[C@@H]1CC[C@H]2C1
ring closure, yield of all isomers ([1]; from CC(C)(C)n1nc([C@H]2CC[C@@H](OC(=O)Oc3ccc([N+](=O)[O-])cc3)C2)cc1Nc1cncc(OC[C@H]2C[C@H](N)C2)n1, DIEA, DMSO, 2.3 mM, 100.0 °C, 12.0 h): 38%

CC1(C)CCCOc2cc(ccn2)Nc2cc(nn2C(C)(C)C)[C@H]2CC[C@H](C2)OC(=O)N1
ring closure, yield of all isomers ([1]; from CC(C)(N)CCCOc1cc(Nc2cc([C@H]3CC[C@@H](OC(=O)Oc4ccc([N+](=O)[O-])cc4)C3)nn2C(C)(C)C)ccn1, DIPEA, DMAP, THF, 1.82 mM, 50.0 °C, 39.0 h): 88.8%

CC1CC23CC(C2)(C3)NC(=O)O[C@@H]2CC[C@@H](C2)c2cc(n(C(C)(C)C)n2)Nc2cc(nc(C(F)F)c2)O1 (stereo partly drawn)
ring closure, yield of all isomers ([1]; from CC(CC12CC(N)(C1)C2)Oc1cc(Nc2cc([C@H]3CC[C@@H](OC(=O)Oc4ccc([N+](=O)[O-])cc4)C3)nn2C(C)(C)C)cc(C(F)F)n1, DIEA, THF, 9.15 mM, 80.0 °C, 2.0 h): 84.7%

CC1CCCOc2cc(ccn2)Nc2cc(nn2C(C)(C)C)[C@H]2CC[C@H](C2)OC(=O)N1 (stereo partly drawn)
ring closure, yield of all isomers ([1]; from CC(N)CCCOc1cc(Nc2cc([C@H]3CC[C@@H](OC(=O)Oc4ccc([N+](=O)[O-])cc4)C3)nn2C(C)(C)C)ccn1, DIPEA, THF, 2.06 mM, 30.0 °C, 24.0 h): 98.5%

CC1OCCCNC(=O)O[C@@H]2CC[C@@H](C2)c2cc(n(C(C)(C)C)n2)Nc2ccnc1c2 (stereo partly drawn)
ring closure, yield of all isomers ([1]; from CC(OCCCN)c1cc(Nc2cc([C@H]3CC[C@@H](OC(=O)Oc4ccc([N+](=O)[O-])cc4)C3)nn2C(C)(C)C)ccn1, DIEA, THF, 6.34 mM, 100.0 °C, 3.0 h): 87.5%

C[C@@H]1CC/C=C/c2cc(ccn2)Nc2cc(nn2C(C)(C)C)[C@H]2CC[C@H](C2)OC(=O)N1
ring closure, yield of all isomers ([1]; from C[C@@H](N)CC/C=C/c1cc(Nc2cc([C@H]3CC[C@@H](OC(=O)Oc4ccc([N+](=O)[O-])cc4)C3)nn2C(C)(C)C)ccn1, DIEA, THF, 1.46 mM, 70.0 °C, 12.0 h): 98.6%

C[C@@H]1Oc2cc(ccn2)Nc2cc(n[nH]2)[C@H]2CC[C@H](C2)OC(=O)N[C@H]2C[C@H]1C2 [compound 146]
IC50 ([2]; Table 21): 100 to 500 nM | IC50 [3]: 10 to 50 nM | IC50 ([4]; Table 21): > 500 nM | IC50 ([5]; Table 21): > 500 nM | IC50 [6]: 250 to 1250 nM | IC50 [7]: 10 to 50 nM | IC50 ([8]; Table 21): 100 to 500 nM | IC50 ([9]; Table 21): ≤ 10 nM

C[C@H]1CCO[C@H](C)c2cc(ccn2)Nc2cc(n[nH]2)[C@H]2CC[C@H](C2)OC(=O)N1 [compound 158]
IC50 ([2]; Table 23): 100 to 500 nM | IC50 [3]: 10 to 50 nM | IC50 ([4]; Table 23): > 500 nM | IC50 ([5]; Table 23): 100 to 500 nM | IC50 [6]: 250 to 1250 nM | IC50 [7]: 10 to 50 nM | IC50 ([8]; Table 23): > 500 nM | IC50 ([9]; Table 23): 10 to 50 nM

C[C@@H]1OCC[C@H](C)NC(=O)O[C@@H]2CC[C@@H](C2)c2cc([nH]n2)Nc2ccnc1c2 [compound 159]
IC50 ([2]; Table 23): 10 to 50 nM | IC50 [3]: 2 to 10 nM | IC50 ([4]; Table 23): 50 to 100 nM | IC50 ([5]; Table 23): 10 to 50 nM | IC50 [6]: 50 to 250 nM | IC50 [7]: 2 to 10 nM | IC50 ([8]; Table 23): 50 to 100 nM | IC50 ([9]; Table 23): ≤ 10 nM

C[C@H]1CC[C@H](C)Oc2cc(ccn2)Nc2cc(n[nH]2)[C@H]2CC[C@H](C2)OC(=O)N1 [compound 162]
IC50 ([2]; Table 21): 10 to 50 nM | IC50 [3]: 2 to 10 nM | IC50 ([4]; Table 21): 100 to 500 nM | IC50 ([5]; Table 21): 100 to 500 nM | IC50 [6]: 250 to 1250 nM | IC50 [7]: 10 to 50 nM | IC50 ([8]; Table 21): 100 to 500 nM | IC50 ([9]; Table 21): ≤ 10 nM

C[C@@H]1CC[C@H](C)Oc2cc(ccn2)Nc2cc(n[nH]2)[C@H]2CC[C@H](C2)OC(=O)N1 [compound 163]
IC50 ([2]; Table 23): 50 to 100 nM | IC50 [3]: 10 to 50 nM | IC50 ([4]; Table 23): 100 to 500 nM | IC50 ([5]; Table 23): 100 to 500 nM | IC50 [6]: 250 to 1250 nM | IC50 [7]: 10 to 50 nM | IC50 ([8]; Table 23): 100 to 500 nM | IC50 ([9]; Table 23): ≤ 10 nM

C[C@@H]1NC(=O)O[C@@H]2CC[C@@H](C2)c2cc([nH]n2)Nc2ccnc(c2)COCC1(F)F [compound 164]
IC50 ([2]; Table 31): ≤ 10 nM | IC50 [3]: ≤ 2 nM | IC50 ([4]; Table 31): ≤ 10 nM | IC50 ([5]; Table 31): ≤ 10 nM | IC50 [6]: 10 to 50 nM | IC50 [7]: ≤ 2 nM | IC50 ([8]; Table 31): 10 to 50 nM | IC50 ([9]; Table 31): ≤ 10 nM

C[C@H]1NC(=O)O[C@@H]2CC[C@@H](C2)c2cc([nH]n2)Nc2ccnc(c2)COCC1(F)F [compound 165]
IC50 ([2]; Table 31): 10 to 50 nM | IC50 [3]: 2 to 10 nM | IC50 ([4]; Table 31): 50 to 100 nM | IC50 ([5]; Table 31): 10 to 50 nM | IC50 [6]: 50 to 250 nM | IC50 [7]: 10 to 50 nM | IC50 ([8]; Table 31): 10 to 50 nM | IC50 ([9]; Table 31): 10 to 50 nM
